pKi: −log10 of the molar value. Entries after “also recorded” stand apart in the source; their conditions may differ.
How the values were obtained:
pain hypersensitivity = details: injected intrathecally, rodent models of chronic pain; listed as UNC3230; cited from earlier work
PIP5K1C and PIP4K2C = details: for PIP5K1C and PIP4K2C; cited from earlier work
PIP5K1C = PIP5K1C (Homo sapiens, UniProt O60331); experiment: ATP competition studies using the mobility shift assay; format: biochemical; details: read-out: average Ki; two independent ATP competition studies
Sequence of PIP5K1C (O60331 whole entry): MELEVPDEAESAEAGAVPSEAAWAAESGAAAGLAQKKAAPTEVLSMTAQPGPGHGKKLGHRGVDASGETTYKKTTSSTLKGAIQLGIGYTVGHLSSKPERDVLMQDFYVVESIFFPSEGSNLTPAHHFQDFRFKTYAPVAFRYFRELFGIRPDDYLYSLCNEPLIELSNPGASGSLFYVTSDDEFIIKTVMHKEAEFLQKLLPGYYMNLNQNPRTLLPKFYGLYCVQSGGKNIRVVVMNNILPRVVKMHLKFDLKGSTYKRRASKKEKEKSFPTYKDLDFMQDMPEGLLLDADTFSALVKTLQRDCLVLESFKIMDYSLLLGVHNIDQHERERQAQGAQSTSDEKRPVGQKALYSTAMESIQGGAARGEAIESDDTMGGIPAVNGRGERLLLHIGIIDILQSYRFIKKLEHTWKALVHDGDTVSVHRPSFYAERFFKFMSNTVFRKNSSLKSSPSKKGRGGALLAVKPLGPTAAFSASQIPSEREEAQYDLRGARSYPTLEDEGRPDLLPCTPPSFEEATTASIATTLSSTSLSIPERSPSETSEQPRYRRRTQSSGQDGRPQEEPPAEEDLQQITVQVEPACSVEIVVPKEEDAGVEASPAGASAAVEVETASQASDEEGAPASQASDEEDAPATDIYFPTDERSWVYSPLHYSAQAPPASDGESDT

DRG neurons = details: cited from earlier work

NC(=O)c1nc(Nc2ccccc2)sc1NC(=O)C1CCCCC1 [Compound 1]
effect on pain hypersensitivity / nociceptive sensitization (pain hypersensitivity): reduce nociceptive sensitization; also recorded: attenuated pain hypersensitivity
selectivity (PIP5K1C and PIP4K2C): highly selective
pKi (PIP5K1C): 7.64
effect on PIP2 in DRG neurons (DRG neurons): reduced PIP2

— paper PMC4610143 (Journal of biomolecular screening, 2014)
